Experimental findings from PubChem BioAssay AID1996 are described below.

Values after ≈ are worked out from the molar mass of the structure shown.

For the data set the following is noted: buffer; pH 7.4; 200.0 µM.
With `CCCC1Cc2[nH]c(=O)c(C#N)cc2CO1` (centres undefined), the kinetic solubility is greater than 32.7 µg/mL.

Turning to `O=C(c1ccc([N+](=O)[O-])o1)N1CCc2ccccc21`, the solubility (kinetic) was 2.6 µg/mL (≈ 10.1 µM).

`O=C(Nc1c(-c2ccccc2)nc2ccccn12)c1cccc(F)c1`: the kinetic solubility was found to be 1.4 µg/mL (≈ 4.23 µM).

`O=C(COC(=O)/C=C/c1ccc(OC(F)F)cc1)Nc1cccc(S(=O)(=O)N2CCOCC2)c1` yielded a solubility (kinetic) of 7.3 µg/mL (≈ 14.7 µM). This solubility kinetic lies about 5.2-fold higher than the previous one.

As to `Cc1csc(SC(C)C(=O)NCc2ccc3c(c2)OCO3)n1` (centres undefined), the kinetic solubility was 49 µg/mL (≈ 146 µM). Against the preceding molecule, the solubility kinetic is about 6.7-fold higher.

For the molecule `Cc1cc(NCCOCCO)n2c(nc3ccccc32)c1C#N`, the kinetic solubility is greater than 46.6 µg/mL.

Regarding `N#C/C(=C\c1cccc(O)c1)C(=O)N1CCCCC1`, the solubility (kinetic) was greater than 38.4 µg/mL.

With `O=C(O)C1CCC(CNS(=O)(=O)c2ccc(Cl)cc2)CC1` (centres undefined), the kinetic solubility worked out at 43 µg/mL (≈ 130 µM).

As for `Cc1cc(OC2CCCCC2)nc(NCc2ccccc2)n1`, the kinetic solubility came to 0.3 µg/mL (≈ 1.01 µM).

With `COc1cc(NC(=O)COC(C)=O)cc(OC)c1OC`, the kinetic solubility was determined as 39 µg/mL (≈ 138 µM).

In the case of `COc1ccc(-n2c(N)cc(=O)[nH]c2=O)cc1`, the kinetic solubility was greater than 35 µg/mL.

`O=C(CSc1ccccc1F)NC(=O)c1ccccc1Br` showed a solubility (kinetic) greater than 55.2 µg/mL.

Regarding `CC(C)(C)NCC(O)CON=C1c2ccccc2-c2ccccc21` (centres undefined), the solubility (kinetic) worked out at 44.1 µg/mL (≈ 136 µM).

`O=C(COc1ccc(Cl)cc1)Nc1ccccc1Cl` gave a kinetic solubility of less than 0.6 µg/mL.

Molecule `O=C(NCc1ccco1)c1ccccc1` came in with a solubility (kinetic) greater than 30.2 µg/mL.

In turn, `Cl.N=C(N)N1CCc2ccccc21` gave a kinetic solubility of 28.1 µg/mL.

Turning to `CCCCn1c2ccccc2c2cc(CC(N)=O)ccc21`, the solubility (kinetic) was determined as 3.8 µg/mL (≈ 13.6 µM).

As to `Cc1ccc(CC2C(=O)N(c3nc(C)cc(C)n3)C(=O)C2C)cc1` (centres undefined), the kinetic solubility is greater than 48.5 µg/mL.

`COc1cccc(C=O)c1OCCN1C(=O)c2ccccc2C1=O` gave a kinetic solubility of 42.6 µg/mL (≈ 131 µM).

`Clc1cnc2nc(SC/C=C/c3ccccc3)[nH]c2c1` gave a kinetic solubility of less than 0.2 µg/mL.

Consider `CC(C)CC(OC(=O)c1ccco1)C(=O)NC1CCCC1` (centres undefined), for which the solubility (kinetic) turned out to be 41.1 µg/mL (≈ 140 µM).

Molecule `O=C(NCCCNC(=O)c1ccc(F)cc1)c1ccc(F)cc1` had a solubility (kinetic) of 30.9 µg/mL (≈ 97.1 µM).

Regarding `CCC(=O)Nc1ccc(C(=O)CN2CCC(C)CC2)cc1`, the kinetic solubility turned out to be 39.4 µg/mL (≈ 137 µM).

Turning to `O=C(CNS(=O)(=O)c1ccc(Cl)c(C(F)(F)F)c1)NC1CCCCC1`, the kinetic solubility was 12.6 µg/mL (≈ 31.6 µM). This solubility kinetic is about 3.1-fold lower than that of the molecule before.

Molecule `COc1ccc(N2CC(NC(=O)N(C)CCC#N)CC2=O)cc1` (centres undefined) returned a kinetic solubility of 46.7 µg/mL (≈ 148 µM).

Molecule `Cc1c(C)c(C)c(CN2CCCC2)c(C)c1C` displayed a solubility (kinetic) of 29.4 µg/mL (≈ 127 µM).

`Cc1sc2ncnc(NCC(O)c3ccc([N+](=O)[O-])cc3)c2c1C` (centres undefined) showed a kinetic solubility of 5.5 µg/mL (≈ 16 µM).

Take `COc1ccc(/C=C/C(=O)OCC(=O)c2ccc[nH]2)cc1`: the solubility (kinetic) amounted to 5 µg/mL (≈ 17.5 µM).

Take `Cc1cc(C(=O)Nc2ccccc2N2CCOCC2)c(C)o1`: the solubility (kinetic) is 10.3 µg/mL (≈ 34.3 µM). This solubility kinetic is about 2.1-fold higher than that of the molecule before.

`COc1ccccc1Nc1nc(Cl)nc(NC(C)(C)C)n1` gave a kinetic solubility of 6.5 µg/mL (≈ 21.1 µM).

In the case of `CCc1nc(Nc2cccc(O)c2)c2oc3ccccc3c2n1.Cl`, the kinetic solubility worked out at 0.5 µg/mL. This solubility kinetic lies about 13-fold lower than the previous one.

Molecule `O=C1OC(CO)CN1Cc1ccccc1` (centres undefined) gave a solubility (kinetic) of 30.3 µg/mL (≈ 146 µM).

`Cc1cccc(Nc2nc(-c3ccc(O)c(O)c3)cs2)n1` displayed a kinetic solubility of 4.5 µg/mL (≈ 15 µM).

Regarding `O=C(c1cc(Cl)ccc1Cl)N1CCc2ccccc21`, the kinetic solubility was determined as 12.1 µg/mL (≈ 41.4 µM).

For `Cc1cc2c(cc1C)N(Cc1ccc(Cl)cc1)C1=NCCCN12`, the kinetic solubility was greater than 48.9 µg/mL.

Turning to `O=c1c2cc([N+](=O)[O-])ccc2nc2n1CCC2`, the solubility (kinetic) was greater than 34.7 µg/mL.

As for `CC1CCCN(C2(O)C(=O)Nc3ccc([N+](=O)[O-])cc32)C1` (centres undefined), the solubility (kinetic) is 16.6 µg/mL (≈ 57 µM).

In turn, `N#Cc1cccc(NC(=O)Cc2ccccc2)c1` showed a kinetic solubility greater than 35.4 µg/mL.

On to `O=C1CN(S(=O)(=O)c2ccc(F)cc2)CCN1`, for which the kinetic solubility is greater than 38.7 µg/mL.

`COc1ccc(C(=O)O/N=C(\N)Cc2ccc([N+](=O)[O-])cc2)c(OC)c1` yielded a solubility (kinetic) of 39.3 µg/mL (≈ 109 µM).

In turn, `Cc1ccc(NC(=O)CSc2nc3sc(C)cc3c(=O)n2C)cc1` displayed a solubility (kinetic) of less than 0.3 µg/mL.

`CCC(NC(=O)c1ccccc1NC(=O)C(C)(C)C)C(=O)N1CC(C)OC(C)C1` (centres undefined) yielded a kinetic solubility greater than 60.5 µg/mL.

`C/C(N)=C(/C#N)C(=O)COC(=O)c1ccccc1Cc1ccccc1` showed a solubility (kinetic) of 22.3 µg/mL (≈ 66.7 µM).

For the molecule `Cc1cc(C)[n+](-c2ccc(Oc3ccccc3)c(S(=O)(=O)[O-])c2)[nH]1`, the solubility (kinetic) was greater than 51.7 µg/mL.

For the molecule `Nc1c(C(=O)N2CCCCCC2)oc2ccccc12`, the solubility (kinetic) was greater than 38.7 µg/mL.

`CNC(=O)CSc1nnc(-c2ccco2)n1-c1cccc(C)c1C` displayed a kinetic solubility greater than 51.4 µg/mL.

Take `CCN1CCN(C(=O)c2cc3ccc(OC)cc3[nH]2)CC1`: the solubility (kinetic) is greater than 43.1 µg/mL.

For the molecule `CN(Cc1ccccc1)C(=O)COC(=O)c1cc(=O)c2ccccc2o1`, the solubility (kinetic) was greater than 52.7 µg/mL.

Turning to `CC(C)C(NC(=O)c1c(F)cccc1F)C(=O)N1CCN(c2ncccn2)CC1` (centres undefined), the solubility (kinetic) was determined as 12.1 µg/mL (≈ 30 µM).

Take `Cc1ccc(NC(=S)NCCc2ccc(Cl)cc2)c(C)c1`: the solubility (kinetic) was less than 0.3 µg/mL.

`O=C(O)c1ccc(N=Cc2c(O)ccc3oc4c(c23)CCCC4)cc1`: the kinetic solubility was greater than 50.3 µg/mL.

Consider `S=C(c1ccc(-c2ccc(Cl)cc2Cl)o1)N1CCCC1`, for which the kinetic solubility is less than 0.7 µg/mL.

In turn, `Cc1ccc(NCCC(=O)c2ccccc2)cc1Cl` displayed a solubility (kinetic) of less than 0.6 µg/mL.

`O=C(OCC(=O)c1ccc(Cl)cc1Cl)c1cnccn1`: the kinetic solubility was greater than 46.7 µg/mL.

As for `CCc1ccc(S(=O)(=O)NCc2cccs2)cc1`, the solubility (kinetic) was determined as 35.6 µg/mL (≈ 127 µM).

Molecule `Cc1cccc(NC(=O)CCCc2ccccc2)c1C` yielded a kinetic solubility of less than 0.6 µg/mL.

`CC1CCCN(c2ccc(C(=O)Nc3cccnc3)cc2[N+](=O)[O-])C1` (centres undefined) returned a solubility (kinetic) of 15.8 µg/mL (≈ 46.4 µM).

In turn, `NC(=O)Cn1cc(C(=O)COc2ccccc2)c2ccccc21` displayed a solubility (kinetic) of 14.6 µg/mL (≈ 47.4 µM).

For the molecule `O=C(COC(=O)c1ccc([N+](=O)[O-])o1)Nc1ccc(Br)cc1F`, the solubility (kinetic) was found to be 21 µg/mL (≈ 54.2 µM).

In turn, `Cc1c(C(=O)NC2CCCC2)oc2ccccc12` gave a solubility (kinetic) of 33.9 µg/mL (≈ 139 µM). Against the preceding molecule, the solubility kinetic is about 1.6-fold higher.

Regarding `COCCN1C(=O)c2ccc(C(=O)NCc3ccco3)cc2C1=O`, the solubility (kinetic) is greater than 49.2 µg/mL.

Molecule `Cc1ccc(S(=O)(=O)c2c[nH]c3cc4c(cc3c2=O)OCO4)cc1` gave a kinetic solubility of 2 µg/mL (≈ 5.82 µM).

The molecule `CC(=O)c1cccc(NC(=O)c2ccc3ccccc3c2)c1` gave a kinetic solubility of 1.9 µg/mL (≈ 6.57 µM).

For the molecule `COc1cc(C(=O)Nc2ccc3c(c2)ncn3C)cc(OC)c1OC`, the solubility (kinetic) is greater than 51.2 µg/mL.

With `Cc1ccccc1NC(=O)NC1CCS(=O)(=O)C1` (centres undefined), the solubility (kinetic) was greater than 40.2 µg/mL.

Consider `COc1cccc(-c2cc(C(=O)N3CCOCC3)no2)c1`, for which the solubility (kinetic) is greater than 43.2 µg/mL.

For the molecule `CCCCC(=O)Nc1ccc(NC(=O)c2cnccn2)cn1`, the solubility (kinetic) is greater than 44.9 µg/mL.

For `Cc1cccc(NC(=O)NCCCCc2ccccc2)c1`, the solubility (kinetic) turned out to be 0.4 µg/mL (≈ 1.42 µM).

Consider `CCOC(=O)CSc1nc2cccnc2n1C`, for which the kinetic solubility was greater than 37.7 µg/mL.

Molecule `O=C(Cc1c(F)cccc1Cl)N(Cc1ccccc1)c1ccccn1` showed a kinetic solubility of 37.3 µg/mL (≈ 105 µM).

Regarding `Cl.c1cncc(CNCCc2c[nH]c3ccccc23)c1`, the solubility (kinetic) stood at 38.5 µg/mL.

`N#Cc1c(-c2ccco2)ccn(Cc2cccc(F)c2)c1=O`: the solubility (kinetic) is 3.2 µg/mL (≈ 10.9 µM).

Consider `Cc1onc(-c2ccccc2)c1C(=O)OCC(=O)N(C)c1ccccc1`, for which the solubility (kinetic) was 39.2 µg/mL (≈ 112 µM). This solubility kinetic lies about 12-fold higher than the previous one.

In the case of `O=C(CSc1nnc(-c2ccncc2)o1)Nc1cc(Cl)ccc1C(=O)O`, the solubility (kinetic) is greater than 58.6 µg/mL.
